Reference: PubChem BioAssay AID2060627 (Molecular Pharmacology Branch, DTP, NCI, 2025)
pIC50: −log10 of the molar value. Values belong to the molecule of their own block, whether it stands above or below them.

System: 156681-154-R-J1-PDC complex spheroid viability
Experiment: Anticancer human tumor 156681-154-R-J1-PDC patient-derived melanoma cell line growth inhibition [CLK]
Conditions: for pIC50: curve of first compound; for viability, T/C: stronger effect = lower value
Summary of the method: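 Multi-cell-type spheroids combined patient-derived tumor cells with HUVEC endothelial cells and human mesenchymal stem cells. Paired agents were dosed in half-log steps down from about clinical Cmax, or from 10 microM where Cmax was unknown.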

[1] = second compound 0.0316 µM, first compound 0.0316 µM
[2] = second compound 0.0316 µM, first compound 0.1 µM
[3] = second compound 0.0316 µM, first compound 0.316 µM
[4] = second compound 0.0316 µM, first compound 1 µM
[5] = second compound 0.0316 µM, first compound 3.16 µM
[6] = second compound 0.0316 µM, first compound 10 µM
[7] = second compound 0.1 µM, first compound 0.0316 µM
[8] = second compound 0.1 µM, first compound 0.1 µM
[9] = second compound 0.1 µM, first compound 0.316 µM
[10] = second compound 0.1 µM, first compound 1 µM
[11] = second compound 0.1 µM, first compound 3.16 µM
[12] = second compound 0.1 µM, first compound 10 µM
[13] = second compound 0.316 µM, first compound 0.0316 µM
[14] = second compound 0.316 µM, first compound 0.1 µM
[15] = second compound 0.316 µM, first compound 0.316 µM
[16] = second compound 0.316 µM, first compound 1 µM
[17] = second compound 0.316 µM, first compound 3.16 µM
[18] = second compound 0.316 µM, first compound 10 µM
[19] = second compound 1 µM, first compound 0.0316 µM
[20] = second compound 1 µM, first compound 0.1 µM
[21] = second compound 1 µM, first compound 0.316 µM
[22] = second compound 1 µM, first compound 1 µM
[23] = second compound 1 µM, first compound 3.16 µM
[24] = second compound 1 µM, first compound 10 µM
[25] = second compound 3.16 µM, first compound 0.0316 µM
[26] = second compound 3.16 µM, first compound 0.1 µM
[27] = second compound 3.16 µM, first compound 0.316 µM
[28] = second compound 3.16 µM, first compound 1 µM
[29] = second compound 3.16 µM, first compound 3.16 µM
[30] = second compound 3.16 µM, first compound 10 µM
[31] = second compound 10 µM, first compound 0.0316 µM
[32] = second compound 10 µM, first compound 0.1 µM
[33] = second compound 10 µM, first compound 0.316 µM
[34] = second compound 10 µM, first compound 1 µM
[35] = second compound 10 µM, first compound 3.16 µM
[36] = second compound 10 µM, first compound 10 µM
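Also: spheroids exposed to the agents for seven days.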
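For viability, T/C in this document: 100% = DMSO vehicle control viability.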

pIC50 (second compound 0.0316 µM): > 7.50
pIC50 (second compound 0.1 µM): > 7.50
pIC50 (second compound 0.316 µM): < 5.00
pIC50 (second compound 1 µM): < 5.00
pIC50 (second compound 3.16 µM): < 5.00
pIC50 (second compound 10 µM): < 5.00
Structure (SMILES): CC(=O)O[C@H]1C(=O)[C@@]2(C)[C@H]([C@H](OC(=O)c3ccccc3)[C@]3(O)C[C@H](OC(=O)[C@H](O)[C@@H](NC(=O)c4ccccc4)c4ccccc4)C(C)=C1C3(C)C)[C@]1(OC(C)=O)CO[C@@H]1C[C@@H]2O + CNC(=O)c1ccc(Nc2nc(OC3CCCC3)c3c(-c4ccc5nc(C)oc5c4)c[nH]c3n2)c(OC)c1
viability, T/C [1]: 16.8%
viability, T/C [2]: 19%
viability, T/C [3]: 13.9%
viability, T/C [4]: 19.6%
viability, T/C [5]: 30.7%
viability, T/C [6]: 41.1%
viability, T/C [7]: 36.3%
viability, T/C [8]: 24.6%
viability, T/C [9]: 38.9%
viability, T/C [10]: 44.2%
viability, T/C [11]: 61.3%
viability, T/C [12]: 56.1%
viability, T/C [13]: 78.4%
viability, T/C [14]: 88.8%
viability, T/C [15]: 55.4%
viability, T/C [16]: 91.9%
viability, T/C [17]: 102%
viability, T/C [18]: 95.3%
viability, T/C [19]: 58.5%
viability, T/C [20]: 66.6%
viability, T/C [21]: 65.5%
viability, T/C [22]: 71.7%
viability, T/C [23]: 85%
viability, T/C [24]: 76.4%
viability, T/C [25]: 63.2%
viability, T/C [26]: 60.1%
viability, T/C [27]: 56%
viability, T/C [28]: 71.4%
viability, T/C [29]: 78.6%
viability, T/C [30]: 58.4%
viability, T/C [31]: 51.6%
viability, T/C [32]: 51.3%
viability, T/C [33]: 55.2%
viability, T/C [34]: 47.1%
viability, T/C [35]: 57.5%
viability, T/C [36]: 55.2%

Structure (SMILES): CC(CO)NC(=O)c1cc(-c2ccc(Cl)cc2)nn(-c2cnn(C)c2)c1=O (centres undefined) + CN1CCN(c2cc(C(=O)Nc3cc4cc(-c5cnn(C)c5)ccc4cn3)ccn2)CC1
pIC50 (second compound 0.0316 µM): < 5.00
pIC50 (second compound 0.1 µM): < 5.00
pIC50 (second compound 0.316 µM): > 7.50
pIC50 (second compound 1 µM): > 7.50
pIC50 (second compound 3.16 µM): > 7.50
pIC50 (second compound 10 µM): > 7.50
viability, T/C [1]: 97.7%
viability, T/C [2]: 107%
viability, T/C [3]: 103%
viability, T/C [4]: 114%
viability, T/C [5]: 84.2%
viability, T/C [6]: 59.6%
viability, T/C [7]: 99.3%
viability, T/C [8]: 94.7%
viability, T/C [9]: 87.5%
viability, T/C [10]: 81.8%
viability, T/C [11]: 67%
viability, T/C [12]: 56%
viability, T/C [13]: 26.8%
viability, T/C [14]: 38.3%
viability, T/C [15]: 34.2%
viability, T/C [16]: 29.2%
viability, T/C [17]: 29.1%
viability, T/C [18]: 21.5%
viability, T/C [19]: 0.34%
viability, T/C [20]: 0.99%
viability, T/C [21]: 0.36%
viability, T/C [22]: 1.64%
viability, T/C [23]: 1.51%
viability, T/C [24]: 2.77%
viability, T/C [25]: 0.25%
viability, T/C [26]: 0.92%
viability, T/C [27]: 0.29%
viability, T/C [28]: 1.68%
viability, T/C [29]: 0.58%
viability, T/C [30]: 0.23%
viability, T/C [31]: 0.29%
viability, T/C [32]: 0.66%
viability, T/C [33]: 0.9%
viability, T/C [34]: 1.31%
viability, T/C [35]: 0.62%
viability, T/C [36]: 1.4%
